# Results as given in patent publication US20240343726A1, “PYRROLOPYRIDINE-3- AND 4-CARBOXAMIDE COMPOSITIONS AND METHODS FOR CELLULAR PROLIFERATION” (The Rockefeller University, priority 2021, published 2024).
# Target: LATS1 kinase (Homo sapiens (Human), UniProt O95835)
# Assay: LATS1 Biochemical HTRF Assay
# Conditions: 2 mM ATP; read-out: LATS1_HTRF_2 mM ATP IC50
# Protocol: LATS1 Biochemical HTRF Assay
# MgCl2 and [1 mM] DTT. 1× Enzymatic buffer diluted from 5× Enzymatic buffer*. Add 0.5 μL of 20× compound in 100% DMSO. […] MgCl2, [1 mM] DTIT and [5 mg/mL] BSA. 5×ERR prepared from 5× Enzymatic buffer with [25 mg/mL] BSA. Mix plate on plate shaker set at 1,350 rpm for 30 seconds, then centrifuge plate at 1,000 rpm for 1 minute. Incubate for 30 minutes at 25° C. on plate shaker set to 500 rpm. […] STK Substrate 1-biotin* then add 2 μL [10 mM] ATP. Mix plate on plate shaker set at 1,350 rpm for 30 seconds, then centrifuge plate at 1,000 rpm for 1 minute. Incubate for 40 minutes at 25° C. on plate shaker set to 500 rpm. […] Streptavidin-XL665 with 1×STK Antibody-Cryptate*. Mix plate on plate shaker set at 1,350 rpm for 30 seconds, then centrifuge plate at 1,000 rpm for 1 minute. Incubate for 60 minutes at 25° C. on plate shaker set to 500 rpm, covered from light.
# *(Included in Cisbio KinEASE-STK Si HTRF Kit: 62ST1PEC)
# Chain of LATS1 kinase (O95835 589-1130): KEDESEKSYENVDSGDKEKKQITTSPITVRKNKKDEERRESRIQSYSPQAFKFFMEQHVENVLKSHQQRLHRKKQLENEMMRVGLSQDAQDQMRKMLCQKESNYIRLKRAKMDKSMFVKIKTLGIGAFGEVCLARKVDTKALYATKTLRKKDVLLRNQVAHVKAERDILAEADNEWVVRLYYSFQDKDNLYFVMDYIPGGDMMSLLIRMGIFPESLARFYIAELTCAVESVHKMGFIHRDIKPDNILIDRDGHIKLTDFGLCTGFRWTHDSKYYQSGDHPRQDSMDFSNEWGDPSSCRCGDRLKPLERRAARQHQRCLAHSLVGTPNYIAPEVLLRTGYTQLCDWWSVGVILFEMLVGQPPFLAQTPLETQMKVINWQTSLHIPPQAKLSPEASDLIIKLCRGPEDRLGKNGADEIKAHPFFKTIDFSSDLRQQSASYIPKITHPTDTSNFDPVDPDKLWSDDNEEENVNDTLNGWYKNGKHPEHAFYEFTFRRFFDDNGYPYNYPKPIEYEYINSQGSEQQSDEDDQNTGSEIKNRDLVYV
row,IC50,SMILES
1,7.9 nM,"CNC(=O)C1CS/C(=N\C(=O)c2c[nH]c3ncccc23)N1c1ccccc1 (centres unmarked) [Example 15, (Z)-2-((1H-pyrrolo[2,3-b]pyridine-3-carbonyl)imino)-N-methyl-3-phenylthiazolidine-4-carboxamide]"
2,500 nM,CN(C)C(=O)CN1CCS/C1=N\C(=O)c1c[nH]c2ncccc12 [Example 18]
3,3780 nM,O=C(/N=C1\SCC2CCCCN12)c1c[nH]c2ncccc12 (centres unmarked) [Example 21]
4,224 nM,O=C(/N=C1\SCC(=O)N1c1ccccc1)c1c[nH]c2ncccc12 [Example 23]
5,1380 nM,O=C(/N=C1\SCCCN1c1ccccc1)c1ccnc2[nH]ccc12 [Example 29]
6,2750 nM,CC(=O)N1CCC(N2CCCS/C2=N\C(=O)c2c[nH]c3ncccc23)CC1 [Example 31]
7,4440 nM,CC1(C)CS/C(=N\C(=O)c2c[nH]c3ncccc23)N(C2CCCCC2)C1 [Example 33]
8,1680 nM,"CN(C)C(=O)CN1CCCS/C1=N\C(=O)c1c[nH]c2ncccc12 [Example 37, (Z)—N-(3-(2-(Dimethylamino)-2-oxoethyl)-1,3-thiazinan-2-ylidene)-1H-pyrrolo[2,3-b]pyridine-3-carboxamide]"
9,650 nM,O=C(/N=c1\sccc(=O)n1-c1ccccc1)c1c[nH]c2ncccc12 [Example 38]
10,270 nM,"O=C(/N=C1\SCCCCN1Cc1ccccc1)c1c[nH]c2ncccc12 [Example 39, (Z)—N-(3-benzyl-1,3-thiazepan-2-ylidene)-1H-pyrrolo[2,3-b]pyridine-3-carboxamide]"
11,220 nM,"O=C(/N=C1\SCCCCN1c1ccccc1)c1c[nH]c2ncccc12 [Example 40, (Z)—N-(3-phenyl-1,3-thiazepan-2-ylidene)-1H-pyrrolo[2,3-b]pyridine-3-carboxamide]"
12,33 nM,Cc1ccccc1-n1ccs/c1=N\C(=O)c1ccnc2[nH]ccc12 [Example 42]
13,1670 nM,O=C(/N=c1\sccn1-c1cccc(Cl)c1)c1ccnc2[nH]ccc12 [Example 43]
14,360 nM,O=C(/N=c1\sccn1-c1ccc(Cl)cc1)c1ccnc2[nH]ccc12 [Example 44]
15,1770 nM,COc1ccccc1-n1ccs/c1=N\C(=O)c1ccnc2[nH]ccc12 [Example 46]
16,765 nM,CCc1ccccc1-n1ccs/c1=N\C(=O)c1ccnc2[nH]ccc12 [Example 47]
17,1230 nM,O=C(/N=c1\sccn1-c1ccccc1C(F)(F)F)c1ccnc2[nH]ccc12 [Example 48]
18,505 nM,O=C(/N=c1\sccn1C1CCCCC1)c1ccnc2[nH]ccc12 [Example 49]
19,2060 nM,O=C(/N=c1\sccn1-c1ccc(CO)cc1Cl)c1ccnc2[nH]ccc12 [Example 50]
20,31 nM,Cc1cs/c(=N\C(=O)c2ccnc3[nH]ccc23)n1C1CCCCC1 [Example 51]
21,12 nM,Cc1cs/c(=N\C(=O)c2ccnc3[nH]ccc23)n1CC1CCCCC1 [Example 52]
22,220 nM,Cc1cs/c(=N\C(=O)c2ccnc3[nH]ccc23)n1Cc1ccccc1 [Example 53]
23,180 nM,"O=C(/N=c1\scc(CO)n1Cc1ccccc1)c1ccnc2[nH]ccc12 [Example 54, (Z)—N-(3-benzyl-4-(hydroxymethyl)thiazol-2(3H)-ylidene)-1H-pyrrolo[2,3-b]pyridine-4-carboxamide]"

row,IC50,SMILES
1,68 nM,"O=C(/N=c1\scc(CO)n1-c1ccccc1Cl)c1ccnc2[nH]ccc12 [Example 55, (Z)—N-(3-(2-chlorophenyl)-4-(hydroxymethyl)thiazol-2(3H)-ylidene)-1H-pyrrolo[2,3-b]pyridine-4-carboxamide]"
2,2780 nM,CN(C)C(=O)c1cs/c(=N\C(=O)c2ccnc3[nH]ccc23)n1-c1ccccc1Cl [Example 56]
3,460 nM,"CN(C)CCNC(=O)c1cs/c(=N\C(=O)c2ccnc3[nH]ccc23)n1Cc1ccccc1 [Example 57, (Z)-2-((1H-pyrrolo[2,3-b]pyridine-4-carbonyl)imino)-3-benzyl-N-(2-(dimethylamino)ethyl)-2,3-dihydrothiazole-4-carboxamide]"
4,215 nM,"CN(C)Cc1cs/c(=N\C(=O)c2ccnc3[nH]ccc23)n1-c1ccccc1Cl [Example 59, (Z)—N-(3-(2-chlorophenyl)-4-((dimethylamino)methyl)thiazol-2(3H)-ylidene)-1H-pyrrolo[2,3-b]pyridine-4-carboxamide]"
5,330 nM,"CC(=O)NCc1cs/c(=N\C(=O)c2ccnc3[nH]ccc23)n1-c1ccccc1Cl [Example 60, (Z)—N-(4-(acetamidomethyl)-3-(2-chlorophenyl)thiazol-2(3H)-ylidene)-1H-pyrrolo[2,3-b]pyridine-4-carboxamide]"
6,1230 nM,Cc1cn(-c2ccccc2Cl)/c(=N/C(=O)c2ccnc3[nH]ccc23)s1 [Example 61]
7,4040 nM,"O=C(/N=c1\sc(CO)cn1Cc1ccccc1)c1ccnc2[nH]ccc12 [Example 62, (Z)—N-(3-benzyl-5-(hydroxymethyl)thiazol-2(3H)-ylidene)-1H-pyrrolo[2,3-b]pyridine-4-carboxamide]"
8,850 nM,"O=C(/N=c1\sc(CO)cn1-c1ccccc1Cl)c1ccnc2[nH]ccc12 [Example 63, (Z)—N-(3-(2-chlorophenyl)-5-(hydroxymethyl)thiazol-2(3H)-ylidene)-1H-pyrrolo[2,3-b]pyridine-4-carboxamide]"
9,0.6 nM,O=C(/N=C1\SCCN1c1c(O)cccc1F)c1c[nH]c2ncccc12 [Example 70]
10,1.1 nM,O=C(/N=C1\SCCN1c1ccc(F)cc1O)c1c[nH]c2ncccc12 [Example 72]
11,1.4 nM,O=C(/N=C1\SCCN1c1cccc(F)c1O)c1c[nH]c2ncccc12 [Example 73]
12,1.8 nM,"O=C(/N=C1\SCCN1c1c(O)cccc1Cl)c1c[nH]c2ncccc12 [Example 74, (NZ)—N-[3-(2-chloro-6-hydroxy-phenyl)thiazolidin-2-ylidene]-1H-pyrrolo[2,3-b]pyridine-3-carboxamide]"
13,1.5 nM,O=C(/N=C1\SCCN1c1cc(F)ccc1O)c1c[nH]c2ncccc12 [Example 75]
14,191 nM,O=C(/N=C1\SCCN1c1ccc[nH]c1=O)c1c[nH]c2ncccc12 [Example 76]
15,4820 nM,O=C(/N=C1\SCCN1c1cccc(=O)[nH]1)c1c[nH]c2ncccc12 [Example 77]
16,18 nM,O=C(/N=C1\SCCCN1c1cccc(O)c1)c1c[nH]c2ncccc12 [Example 78]
17,221 nM,"O=C(/N=C1\SCCN1C1CCCC1O)c1c[nH]c2ncccc12 (centres unmarked) [Example 79, (NZ)—N-[3-(2-hydroxycyclopentyl)thiazolidin-2-ylidene]-1H-pyrrolo[2,3-b]pyridine-3-carboxamide]"
18,1.6 nM,O=C(/N=C1\SCC(CO)N1c1ccccc1Cl)c1c[nH]c2ncccc12 (centres unmarked) [Example 80]
19,50 nM,"O=C(/N=C1\SCCN1C1CCC(O)C1)c1c[nH]c2ncccc12 (centres unmarked) [Example 81, (Z)—N-(3-(3-hydroxycyclopentyl)thiazolidin-2-ylidene)-1H-pyrrolo[2,3-b]pyridine-3-carboxamide]"
20,17 nM,O=C(/N=C1\SCC(CO)N1Cc1ccccc1)c1c[nH]c2ncccc12 (centres unmarked) [Example 82]
21,900 nM,O=C(/N=c1\sccn1Cc1ccccc1)n1ccc2ncccc21 [Example 86]
22,2140 nM,N#Cc1cc2ncccc2n1C(=O)/N=c1\sccn1-c1ccccc1 [Example 87]

row,SMILES,IC50
1,"O=C(/N=C1\SCC2CNCCN12)c1c[nH]c2ncccc12 (centres unmarked) [Example 22, (Z)—N-(hexahydro-3H-thiazolo[3,4-a]pyrazin-3-ylidene)-1H-pyrrolo[2,3-b]pyridine-3-carboxamide]",2130 nM

# Tested on: phosphorylation of YAP
# Assay: pYAP HTRF Assay (HEK 293A Cells)
# Assay type: cell-based
# Conditions: HEK293-A, inhibitory activity of phosphorylation of YAP, read-out: LATS1_ICKA_HEK293A IC50
# Protocol: Use 3× dilution scheme in DMSO through column 10, lastly diluting further by 10× into column 11. Add 100% DMSO in serum-free and complete medium in columns 1 and 12 as a positive and negative control, respectively. To achieve a dilution of 1:500, use two 0.8 ml 96-well deep-well plates (ThermoFisher AB0765) pre-filled with the medium as intermediate (1:20) and final dilution plate (1:25). (Transfer row-wise) • Flick the cell plate carefully, three to four times or until all wells are clear of any residual liquid. Dispense 50 μL of the compound in medium into respective wells row-wise, incubate at 37° C. for 30 min • After a 30-minute incubation, flick the cell plate carefully, three to four times or until all wells are clear of any residual liquid. Dilute stock Lysis Buffer #4 (4×) in deionized water, complemented with blocking solution, the stock of which is 100×*. Add 75 μL 1× lysis buffer+blocking reagent mix into each well. Mix plate on a shaker for 30 min at room temperature • Dilute stock solution of total/phospho-YAP Eu cryptate & d2 antibody (each) in the ratio of 1:20 with detection buffer. Mix antibody solutions Eu3+ cryptate and d2 (each for total-Yap and phospho-YAP) in the ratio of 1:1*. Transfer 4 μL of the antibody mixture into two separate small-volume 384-well plates assigned for total-YAP and phospho-YAP. Give a short spin to the plates in a benchtop centrifuge set at 1000 rpm for 30 seconds • Row-wise, homogenize the lysate gently by pipetting it up and down, swirling the tip in the well to help scrape off any adherent cells (avoid bubble formation). Row-wise transfer 16 μL cell lysate into the low-volume 384-well plates with 4 μL total-YAP or phospho-YAP antibody reaction mix for a final volume of 20 μL. Spin down the plates in a benchtop centrifuge set at 1000 rpm for 30 seconds • Seal the plates using a vacuum sealer, incubate overnight at room temperature in the dark on a shaker; read the next day • Use a fluorescence emission read using compatible HTRF® reader—BioTek Synergy NEO. […] Included in Cisbio HTRF YAP total kit (#64YATPEH) & YAP phospho-S127 kit (#64YAPPEH).
row,IC50,SMILES
1,1700 nM,COc1ccccc1N1CCS/C1=N\C(=O)c1c[nH]c2ncccc12 [Example 5]
2,1850 nM,COc1ccc(N2CCS/C2=N\C(=O)c2c[nH]c3ncccc23)cc1 [Example 7]
3,1740 nM,COc1cccc(N2CCS/C2=N\C(=O)c2c[nH]c3ncccc23)c1 [Example 9]
4,69 nM,O=C(/N=C1\SCCCN1c1ccccc1)c1c[nH]c2ncccc12 [Example 26]
